In patent publication US4529600A, “Pentadeuterioretinoids” (SRI International, priority 1982, dated 1985):

How the values were obtained:
[1] = system: keratinization in hamster tracheal organ culture; assay: tracheal organ culture assay: reversal of keratinization in hamster tracheal organ culture; type: cell-based; details: 10 days in culture
Description: (§1) The ODC assay measures a compound's effect on the prevention of the induction of ODC. The tracheal organ culture assay measures a compound's ability to reverse keratinization. For comparison purposes retinoic acid was also tested by these assays.
The tracheal organ culture assay is carried out as follows. Tracheas are taken from hamsters that are in very early stages of vitamin A deficiency and placed in organ culture. At the time of culture, the animals are still gaining weight; the tracheal epithelium is generally low columnar or cuboidal, with only occasional patches of squamous metaplasia. Each trachea is opened from the larynx to the carina along the membranous dorsal wall and cultured in a serum-free medium (CMRL-1066; with crystalline bovine insulin, 0.1 μg/ml; hydrocortisone hemisuccinate, 0.1 μg/ml; glutamine, 2 mM; penicillin, 100 units/ml; and streptomycin,100 μg/ml, added). Cultures are gassed with 50% oxygen, 45% nitrogen, and 5% CO2. The culture dishes are rocked at 35.5-36.0 degrees to allow the tracheas contact with both gas and medium. All tracheas are grown in medium containing no retinoid for the first 3 days. At the end of 3 days, some tracheas are harvested; almost all of these tracheas have significant squamous metaplasia, and approximately 60% have keratinized lesions. The remaining tracheas are then divided into different groups which are treated with either: (1) retinoid dissolved in dimethylsulfoxide (final concentration of DMSO in culture medium is never greater than 0.1%) or (2) an equivalent amount of DMSO alone. Culture medium is changed three times a week, and all of the remaining tracheas are harvested at the end of 10 days in culture. Tracheas are fixed in 10% buffered formalin and embedded in paraffin. Cross sections of five micrometers are made through the mid-portion, stained with hematoxylin and eosin, and then scored with a microscope for the presence of keratin and keratohyaline granules, both of which are found in approximately 90% of control cultures that received no retinoid for the entire 10 day culture period.

ornithine decarboxylase = assay: ODC assay: inhibition of induction of ornithine decarboxylase by 12-O-tetradecanoylphorbol-13-acetate in mouse skin; type: in vivo, mouse (female Charles River CD-1); details: topical, 1 hour before TPA (17 nmol)
Description: as §1
The ODC assay is carried out as follows. Female Charles River CD-1 mice from Charles River Breeding Laboratories, Wilmington, Mass., are used (age 7 to 9 weeks). The dorsal hair of the mice is shaved 1 to 2 days before testing, and only mice showing no hair regrowth are used. A single dose of 12-O-tetradecanoylphorbol-13-acetate (TPA) (10.5 μg, 17 nmol) in 0.2 mL of acetone is applied topically to the back of each mouse. The test compound, at one of three dose levels (1.7, 17, and 170 nmol), dissolved in 0.2 mL of acetone is applied 1 hour before the TPA treatment to the test groups; the control group is treated with acetone alone. The mice are killed by cervical dislocation five hours after TPA treatment. Determinations are done in triplicate.
The epidermis is obtained from the sacrificed animals. To obtain sufficient material, the dorsal skins from 2 to b 3 mice in each treatment group are pooled. The depilatory agent Nudit® (Helena Rubinstein, New York) is applied to the shaved area of the skin; after 5 minutes, it is washed off thoroughly with cold tap water. […]
The supernatant fraction remaining after centrifugation of the homogenate at 10,000×g for 30 seconds at 0° C. is used for the enzyme assay. Enzyme activity is determined using the microassay for ODC as described by Verma and Boutwell to measure the release of ^14 CO2 from DL-[1-^14 C]-ornithine (58 mCi/mmol) after incubation with the 10,000×g supernatant. […]
Radioactivity is measured using a toluene-based scintillant (4 g of PPO and 50 mg of POPOP/L of toluene) in a Beckman LS-250 liquid scintillation counter. Enzyme activity is determined in triplicate and expressed as nanomoles of CO2 released in 30 minutes per milligram of protein. […] The protein concentrations of the epidermal extracts are determined by the Lowry procedure, using bovine serum albumin as the standard.

CC1=C(/C=C/C(C)=C/C=C/C(C)=C/C(=O)O)C(C)(C)CCC1 [(E)-retinoic acid]
Reversal of Keratinization, Active Cultures (%) ([1]; 10^-8 M): 100% | Reversal of Keratinization, Active/Total Cultures ([1]; 10^-8 M): 236/236 | Reversal of Keratinization, Active Cultures (%) ([1]; 10^-9 M): 88% | Reversal of Keratinization, Active/Total Cultures ([1]; 10^-9 M): 419/474 | Reversal of Keratinization, Active Cultures (%) ([1]; 10^-10 M): 52% | Reversal of Keratinization, Active/Total Cultures ([1]; 10^-10 M): 134/256 | Inhibition of Induction of Ornithine Decarboxylase by 12-O-Tetradecanoylphorbol-13-acetate in Mouse Skin, % Inhibition of Control (ornithine decarboxylase; dose 1.7 nmol): 87-91%

[2H]C([2H])([2H])C1=C(/C=C/C(C)=C/C=C/C(C)=C/C(=O)O)C(C)(C)CCC1([2H])[2H] [(E)-retinoic acid-4,4,18,18,18-d5]
Reversal of Keratinization, Active Cultures (%) ([1]; 10^-9 M): 100% | Reversal of Keratinization, Active/Total Cultures ([1]; 10^-9 M): 8/8 | Reversal of Keratinization, Active Cultures (%) ([1]; 10^-10 M): 86% | Reversal of Keratinization, Active/Total Cultures ([1]; 10^-10 M): 6/7 | Inhibition of Induction of Ornithine Decarboxylase by 12-O-Tetradecanoylphorbol-13-acetate in Mouse Skin, % Inhibition of Control (ornithine decarboxylase; dose 1.7 nmol): 90% | Inhibition of Induction of Ornithine Decarboxylase by 12-O-Tetradecanoylphorbol-13-acetate in Mouse Skin, % Inhibition of Control (ornithine decarboxylase; dose 17 nmol): 90%
